The source of these data is publication PMC6352943, “Novel pyrazolo[3,4-d]pyrimidines: design, synthesis, anticancer activity, dual EGFR/ErbB2 receptor tyrosine kinases inhibitory activity, effects on cell cycle profile and caspase-3-mediated apoptosis” (Journal of Enzyme Inhibition and Medicinal Chemistry, 2019).

Test in all cases: NCI 60 cell line single dose screen (SRB)
What all share (assay type): cell-based

One test has as its system MALME-3M. The conditions noted are these: Homo sapiens; MALME-3M (melanoma), single dose 10^−5 M, 48 h; read-out: Growth inhibition percentage. An outline of the steps:
(§1)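 Cells were plated and grown 24 h at 37 °C, 5% CO2 before compound addition from DMSO stock, then exposed 48 h. Adherent cells were fixed with cold TCA (final 10%) and suspension cells with 16% TCA. SRB-stained protein was read at 515 nm and percent growth was calculated against time-zero and untreated plates.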

In a further test the test system is 786-0. Particulars: Homo sapiens; 786-0 (renal cancer), single dose 10^−5 M, 48 h; read-out: Growth inhibition percentage. The procedure, abridged:
as §1

For the next test, the system named is DU-145. The conditions noted are these: Homo sapiens; DU-145 (prostate cancer), single dose 10^−5 M, 48 h; read-out: Growth inhibition percentage. An outline of the steps:
as §1

The next test has as its system HCT-116. Particulars: Homo sapiens; HCT-116 (colon cancer), single dose 10^−5 M, 48 h; read-out: Growth inhibition percentage. The procedure, abridged: as §1
The next test has as its system NCI-H226. The conditions noted are these: Homo sapiens; NCI-H226 (non-small cell lung cancer), single dose 10^−5 M, 48 h; read-out: Growth inhibition percentage. An outline of the steps: as §1
A further test relates to OVCAR-4. Particulars: Homo sapiens; OVCAR-4 (ovarian cancer), single dose 10^−5 M, 48 h; read-out: Growth inhibition percentage. An outline of the steps: as §1
The subject of another test is COLO 205. The conditions noted are these: Homo sapiens, COLO 205, 48 h; read-out: Growth inhibition percentage. The procedure, abridged:
as §1

For the next test, the system named is K-562. The conditions noted are these: Homo sapiens, K562; K-562 (leukemia), single dose 10^−5 M, 48 h; read-out: Growth inhibition percentage. An outline of the steps: as §1
The next test concerns T-47D. Particulars: Homo sapiens, T47D; T-47D (breast cancer), single dose 10^−5 M, 48 h; read-out: Growth inhibition percentage. The procedure, abridged: as §1
In a further test the test system is MDA-MB-468. The conditions noted are these: Homo sapiens; MDA-MB-468 (breast cancer), single dose 10^−5 M, 48 h; read-out: Growth inhibition percentage. The procedure, abridged: as §1
In another test the test system is A498. Particulars: Homo sapiens; A498 (renal cancer), single dose 10^−5 M, 48 h; read-out: Growth inhibition percentage. An outline of the steps:
as §1

The next test concerns SK-MEL-28. The conditions noted are these: Homo sapiens; SK-MEL-28 (melanoma), single dose 10^−5 M, 48 h; read-out: Growth inhibition percentage. An outline of the steps: as §1
A further test deals with OVCAR-8. The conditions noted are these: Homo sapiens; OVCAR-8 (ovarian cancer), single dose 10^−5 M, 48 h; read-out: Growth inhibition percentage. An outline of the steps:
as §1

The test system of a further test is NCI-H322M. Particulars: Homo sapiens; NCI-H322M (non-small cell lung cancer), single dose 10^−5 M, 48 h; read-out: Growth inhibition percentage. An outline of the steps: as §1
A further test relates to HOP-62. The conditions noted are these: Homo sapiens; HOP-62 (non-small cell lung cancer), single dose 10^−5 M, 48 h; read-out: Growth inhibition percentage. An outline of the steps: as §1
The subject of another test is HS 578T. The conditions noted are these: Homo sapiens; HS 578T (breast cancer), single dose 10^−5 M, 48 h; read-out: Growth inhibition percentage. An outline of the steps:
as §1

Another test has as its system LOX IMVI. The conditions noted are these: Homo sapiens; LOX IMVI (melanoma), single dose 10^−5 M, 48 h; read-out: Growth inhibition percentage. An outline of the steps: as §1
The test system of another test is MCF7. The conditions noted are these: Homo sapiens; MCF7 (breast cancer), single dose 10^−5 M, 48 h; read-out: Growth inhibition percentage. An outline of the steps:
as §1

In a further test the test system is MDA-MB-231/ATCC. The conditions noted are these: Homo sapiens; MDA-MB-231/ATCC (breast cancer), single dose 10^−5 M, 48 h; read-out: Growth inhibition percentage. The procedure, abridged: as §1
The subject of a further test is OVCAR-3. Particulars: Homo sapiens; OVCAR-3 (ovarian cancer), single dose 10^−5 M, 48 h; read-out: Growth inhibition percentage. An outline of the steps:
as §1

For another test, the system named is EKVX. The conditions noted are these: Homo sapiens; EKVX (non-small cell lung cancer), single dose 10^−5 M, 48 h; read-out: Growth inhibition percentage. An outline of the steps: as §1

The structures appear in SMILES notation.

A word on the inhibition: it is the drop in the measured response relative to a control, in per cent. Turning to `Cc1nn(-c2ccc(F)cc2)c2ncnc(N3CCN(c4ccc(Cl)cc4)CC3)c12` [Compound 8c, 4–(4-(4-Chlorophenyl)piperazin-1-yl)-1–(4-fluorophenyl)-3-methyl-1H-pyrazolo[3,4-d]pyrimidine], the inhibition at 10 µM with MALME-3M was 4.22%; in the test with 786-0 it was -2.04%; in the test on DU-145, -5.88%; in the test with HCT-116, 1.69%; in the test on NCI-H226, 7.59%; in the test on OVCAR-4, -1.9%. In addition, the inhibition at 10 µM is -1.97% in the test on COLO 205; 11.4% with K-562; 10.3% in the test with T-47D; -3.83% in the test on MDA-MB-468; 9.66% in the test with A498; -3.74% with SK-MEL-28. In addition, the inhibition at 10 µM in the test with OVCAR-8 turned out to be 3.66%; in the test on NCI-H322M, 3.9%; in the test with HOP-62, 4.05%; in the test on HS 578T, 3.74%; in the test with LOX IMVI it was 4.93%; in the test with MCF7, 3.1%. Also, the values for the inhibition at 10 µM in the test on MDA-MB-231/ATCC, in the test on OVCAR-3 and with EKVX were 7.92%, 1.21% and 20.6%, respectively.

As to `COc1ccc(N2CCN(c3ncnc4c3c(C)nn4-c3ccc(F)cc3)CC2)cc1` [Compound 8d, 1–(4-Fluorophenyl)-4–(4-(4-methoxyphenyl)piperazin-1-yl)-3-methyl-1H-pyrazolo[3,4-d]pyrimidine], the inhibition at 10 µM in the test on MALME-3M is 5.14%; with 786-0, -4.57%; with DU-145 it was -11.2%; in the test with HCT-116 it was 7.42%; in the test with NCI-H226, 5.22%; with OVCAR-4 it was -1.77%. Further, the inhibition at 10 µM is -7.56% in the test on COLO 205; -4% in the test on K-562; 3.85% in the test with T-47D; 0.37% in the test on MDA-MB-468; -0.85% in the test with A498; -8.74% in the test with SK-MEL-28. In addition, the inhibition at 10 µM stood at 1.33% with OVCAR-8; 1.5% with NCI-H322M; 1.51% with HOP-62; 5.99% with HS 578T; 0.28% in the test with LOX IMVI; 1.6% in the test with MCF7. Further, the inhibition at 10 µM is 2.36% in the test with MDA-MB-231/ATCC, -8.47% with OVCAR-3 and 7.21% in the test on EKVX.

With `COc1cc(C=NNc2ncnc3c2c(C)nn3-c2ccc(F)cc2)ccc1O` [Compound 10b, 1–(4-Fluorophenyl)-4–(2-(4-hydroxy-3-methoxybenzylidene)-hydrazinyl)-3-methyl-1H-pyrazolo[3,4-d]pyrimidine], the inhibition at 10 µM is -12.4% in the test with MALME-3M; 11.3% in the test on 786-0; 12.4% in the test with DU-145; -4.51% in the test with HCT-116; -2.3% with NCI-H226; 9.65% in the test on OVCAR-4. In addition, the inhibition at 10 µM is -4.39% with COLO 205; 24.2% in the test on K-562; 20.1% in the test on T-47D; 8.05% in the test on MDA-MB-468; -3.34% in the test with A498; -7.04% in the test with SK-MEL-28. In addition, the inhibition at 10 µM was 3.64% in the test with OVCAR-8; 14.4% in the test on NCI-H322M; -6.39% in the test with HOP-62; 0.89% in the test on HS 578T; 19% with LOX IMVI; 14.7% in the test on MCF7. The inhibition at 10 µM in the test with MDA-MB-231/ATCC was determined as 15.6%; in the test with OVCAR-3, 24.2%; in the test with EKVX, 12.4%.
